Measurements published in patent US20230348376A1 (TEIJIN PHARMA LIMITED, priority 2020, published 2023).

Biological target: T1, human VDR (Homo sapiens, UniProt P11473)
T1 sequence (P11473 1-427): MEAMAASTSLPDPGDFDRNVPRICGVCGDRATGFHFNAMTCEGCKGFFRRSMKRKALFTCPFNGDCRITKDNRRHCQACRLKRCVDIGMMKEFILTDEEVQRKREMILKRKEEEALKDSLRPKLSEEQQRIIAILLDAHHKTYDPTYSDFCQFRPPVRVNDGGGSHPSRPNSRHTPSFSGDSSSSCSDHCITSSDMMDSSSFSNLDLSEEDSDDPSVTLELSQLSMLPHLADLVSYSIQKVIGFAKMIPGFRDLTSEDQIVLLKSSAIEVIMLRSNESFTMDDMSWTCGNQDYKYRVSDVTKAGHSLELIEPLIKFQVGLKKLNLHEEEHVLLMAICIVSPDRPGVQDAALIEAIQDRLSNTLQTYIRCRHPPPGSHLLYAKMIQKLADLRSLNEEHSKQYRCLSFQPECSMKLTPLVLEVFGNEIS
T1 sequence (P19793 1-462 partner): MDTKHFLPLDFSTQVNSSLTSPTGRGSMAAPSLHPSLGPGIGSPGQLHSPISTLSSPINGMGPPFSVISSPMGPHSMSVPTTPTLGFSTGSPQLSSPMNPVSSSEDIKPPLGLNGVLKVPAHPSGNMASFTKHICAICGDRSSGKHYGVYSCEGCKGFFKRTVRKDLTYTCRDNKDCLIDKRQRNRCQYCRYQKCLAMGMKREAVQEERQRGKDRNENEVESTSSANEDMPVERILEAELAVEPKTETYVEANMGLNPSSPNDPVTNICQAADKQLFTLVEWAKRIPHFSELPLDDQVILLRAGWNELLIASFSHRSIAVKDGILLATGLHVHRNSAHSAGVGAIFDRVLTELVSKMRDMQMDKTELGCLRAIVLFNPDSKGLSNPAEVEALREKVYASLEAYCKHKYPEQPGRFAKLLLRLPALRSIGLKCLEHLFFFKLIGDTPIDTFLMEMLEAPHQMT
Assay: Evaluation of VDR transcription activity in human osteoblasts (HOS cells), luciferase reporter
Conditions: Activity (EC50, VDR transcription activity), HOS cells transfected with human VDR, human RXRα and DR3 luciferase reporter; 21 hours

EC50	Structure (SMILES)
1 to 10 nM	C[C@H](CN1CC(O)(C(F)(F)F)C1)[C@H]1CC[C@H]2/C(=C/C=C3C[C@@H](O)C[C@H](O)C3)CCC[C@]12C [Compound A010, (1R,3R)-5-(2-((1R,3aS,7aR,E)-1-((S)-1-(3-hydroxy-3-(trifluoromethyl)azetidin-1-yl)propan-2-yl)-7a-methyloctahydro-4H-inden-4-ylidene)ethylidene)cyclohexane-1,3-diol]
10 to 100 nM	C[C@H](CCCN1CC[C@H](C(F)F)C1)[C@H]1CC[C@H]2/C(=C/C=C3C[C@@H](O)C[C@H](O)C3)CCC[C@]12C [Compound B084, (1R,3R)-5-(2-((1R,3aS,7aR,E)-1-((R)-5-((S)-3-(difluoromethyl)pyrrolidin-1-yl)pentan-2-yl)-7a-methyloctahydro-4H-inden-4-ylidene)ethylidene)cyclohexane-1,3-diol]
10 to 100 nM	C=C1/C(=C\C=C2/CCC[C@]3(C)[C@@H]([C@H](C)CCN4CCOCC4)CC[C@@H]23)C[C@@H](O)C[C@@H]1O [Compound D022, (1R,3S,Z)-5-(2-((1R,3aS,7aR,E)-7a-methyl-1-((R)-4-morpholinobutan-2-yl)octahydro-4H-inden-4-ylidene)ethylidene)-4-methylenecyclohexane-1,3-diol]
100 to 1000 nM	C=C1/C(=C\C=C2/CCC[C@]3(C)[C@@H]([C@H](C)CN4CC[C@@](C)(O)C4)CC[C@@H]23)C[C@@H](O)C[C@@H]1O [Compound B074, (1R,3S,Z)-5-(2-((1R,3aS,7aR,E)-1-((S)-1-((R)-3-hydroxy-3-methylpyrrolidin-1-yl)propan-2-yl)-7a-methyloctahydro-4H-inden-4-ylidene)ethylidene)-4-methylenecyclohexane-1,3-diol]
10 to 100 nM	C[C@H](CCN1CC[C@H](F)C1)[C@H]1CC[C@H]2/C(=C/C=C3C[C@@H](O)C[C@H](O)C3)CCC[C@]12C [Compound B014, (1R,3R)-5-(2-((1R,3aS,7aR,E)-1-((R)-4-((S)-3-fluoropyrrolidin-1-yl)butan-2-yl)-7a-methyloctahydro-4H-inden-4-ylidene)ethylidene)cyclohexane-1,3-diol]
10 to 100 nM	C[C@H](CN1CCCC(O)(C(F)F)C1)[C@H]1CC[C@H]2/C(=C/C=C3C[C@@H](O)C[C@H](O)C3)CCC[C@]12C (single isomer, unassigned) [Compound C035b]
10 to 100 nM	C[C@H](CCCN1CC[C@@H](C(F)F)C1)[C@H]1CC[C@H]2/C(=C/C=C3C[C@@H](O)C[C@H](O)C3)CCC[C@]12C [Compound B085, (1R,3R)-5-(2-((1R,3aS,7aR,E)-1-((R)-5-((R)-3-(difluoromethyl)pyrrolidin-1-yl)pentan-2-yl)-7a-methyloctahydro-4H-inden-4-ylidene)ethylidene)cyclohexane-1,3-diol]
1 to 10 nM	C=C1/C(=C\C=C2/CCC[C@]3(C)[C@@H]([C@H](C)CN4CCC[C@H](C(F)F)C4)CC[C@@H]23)C[C@@H](O)[C@H](C)[C@@H]1O [Compound C050, (1R,2S,3 S,Z)-5-(2-((1R,3aS,7aR,E)-1-((S)-1-((S)-3-(difluoromethyl)piperidin-1-yl)propan-2-yl)-7a-methyloctahydro-4H-inden-4-ylidene)ethylidene)-2-methyl-4-methylenecyclohexane-1,3-diol]
10 to 100 nM	C=C1/C(=C\C=C2/CCC[C@]3(C)[C@@H]([C@H](C)CN4CC[C@@H](OCC(F)F)C4)CC[C@@H]23)C[C@@H](O)C[C@@H]1O [Compound B054, (1R,3S,Z)-5-(2-((1R,3aS,7aR,E)-1-((S)-1-((R)-3-(2,2-difluoroethoxy)pyrrolidin-1-yl)propan-2-yl)-7a-methyloctahydro-4H-inden-4-ylidene)ethylidene)-4-methylenecyclohexane-1,3-diol]
100 to 1000 nM	C[C@H](CN1CCC[C@H](CC(F)F)C1)[C@H]1CC[C@H]2/C(=C/C=C3C[C@@H](O)C[C@H](O)C3)CCC[C@]12C [Compound C051, (1R,3R)-5-(2-((1R,3aS,7aR,E)-1-((S)-1-((R)-3-(2,2-difluoroethyl)piperidin-1-yl)propan-2-yl)-7a-methyloctahydro-4H-inden-4-ylidene)ethylidene)cyclohexane-1,3-diol]
